{
  "source": "paper PMC6857051",
  "about": "“Proliferative regulation of alveolar epithelial type 2 progenitor cells by human Scnn1d gene” (Theranostics, 2019)",
  "molecules": {"B1": {"name": "plasmin: serine protease of the plasmin(ogen) signal pathway for fibrinolysis (protein, UniProt P00747 20-580; P00747 581-810, looked up)", "Plasmin heavy chain A": "EPLDDYVNTQGASLFSVTKKQLGAGSIEECAAKCEEDEEFTCRAFQYHSKEQQCVIMAENRKSSIIIRMRDVVLFEKKVYLSECKTGNGKNYRGTMSKTKNGITCQKWSSTSPHRPRFSPATHPSEGLEENYCRNPDNDPQGPWCYTTDPEKRYDYCDILECEEECMHCSGENYDGKISKTMSGLECQAWDSQSPHAHGYIPSKFPNKNLKKNYCRNPDRELRPWCFTTDPNKRWELCDIPRCTTPPPSSGPTYQCLKGTGENYRGNVAVTVSGHTCQHWSAQTPHTHNRTPENFPCKNLDENYCRNPDGKRAPWCHTTNSQVRWEYCKIPSCDSSPVSTEQLAPTAPPELTPVVQDCYHGDGQSYRGTSSTTTTGKKCQSWSSMTPHRHQKTPENYPNAGLTMNYCRNPDADKGPWCFTTDPSVRWEYCNLKKCSGTEASVVAPPPVVLLPDVETPSEEDCMFGNGKGYRGKRATTVTGTPCQDWAAQEPHRHSIFTPETNPRAGLEKNYCRNPDGDVGGPWCYTTNPRKLYDYCDVPQCAAPSFDCGKPQVEPKKCPGR", "Plasmin light chain B": "VVGGCVAHPHSWPWQVSLRTRFGMHFCGGTLISPEWVLTAAHCLEKSPRPSSYKVILGAHQEVNLEPHVQEIEVSRLFLEPTRKDIALLKLSSPAVITDKVIPACLPSPNYVVADRTECFITGWGETQGTFGAGLLKEAQLPVIENKVCNRYEFLNGRVQSTELCAGHLAGGTDSCQGDSGGPLVCFEKDKYILQGVTSWGLGCARPNKPGVYVRVSRFVTWIEGVMRNN", "modifications": "Plasmin", "notes": "serine protease of the plasmin(ogen) signal pathway for fibrinolysis"}},
  "assay_type_in_all_cases": "cell-based",
  "key": {"[1]": {"molecular_target": "ENaC activity in mouse tracheal epithelial (MTE) monolayers, control", "experiment": "Ussing chamber short-circuit current, control MTE monolayers (uninduced δ802Tg)"}, "[2]": {"molecular_target": "ENaC activity in δ802-ENaC expressing mouse tracheal epithelial (MTE) monolayers", "experiment": "Ussing chamber short-circuit current, δ-ENaC MTE monolayers (induced δ802Tg/Cre)"}, "human αβγ-ENaC": {"molecular_target": "T1, human αβγ-ENaC (Homo sapiens, UniProt P37088+P51168+P51170)", "T1 construct": "expressed in transfected cells; host or cells: Xenopus laevis oocytes injected with cRNA (pGEM HE vector)", "T1 sequence (P37088 1-669)": "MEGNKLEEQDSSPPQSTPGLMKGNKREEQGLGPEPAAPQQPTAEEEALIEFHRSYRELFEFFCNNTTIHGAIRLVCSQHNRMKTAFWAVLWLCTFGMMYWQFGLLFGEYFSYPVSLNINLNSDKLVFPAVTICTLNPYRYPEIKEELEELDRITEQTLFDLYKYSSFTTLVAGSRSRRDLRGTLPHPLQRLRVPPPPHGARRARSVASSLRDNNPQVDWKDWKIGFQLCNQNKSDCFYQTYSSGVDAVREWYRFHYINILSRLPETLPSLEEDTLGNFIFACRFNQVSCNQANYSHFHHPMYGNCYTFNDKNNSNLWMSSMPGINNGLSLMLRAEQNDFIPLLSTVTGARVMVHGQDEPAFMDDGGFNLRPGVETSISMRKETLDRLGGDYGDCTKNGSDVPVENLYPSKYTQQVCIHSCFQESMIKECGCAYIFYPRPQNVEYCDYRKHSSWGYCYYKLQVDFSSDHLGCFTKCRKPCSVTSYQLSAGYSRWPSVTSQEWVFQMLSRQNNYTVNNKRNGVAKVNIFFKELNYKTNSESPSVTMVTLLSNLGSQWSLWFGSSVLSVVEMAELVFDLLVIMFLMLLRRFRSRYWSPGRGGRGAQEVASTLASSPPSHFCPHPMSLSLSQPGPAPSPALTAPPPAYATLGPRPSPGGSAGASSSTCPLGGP", "T1 sequence (P51168 1-640)": "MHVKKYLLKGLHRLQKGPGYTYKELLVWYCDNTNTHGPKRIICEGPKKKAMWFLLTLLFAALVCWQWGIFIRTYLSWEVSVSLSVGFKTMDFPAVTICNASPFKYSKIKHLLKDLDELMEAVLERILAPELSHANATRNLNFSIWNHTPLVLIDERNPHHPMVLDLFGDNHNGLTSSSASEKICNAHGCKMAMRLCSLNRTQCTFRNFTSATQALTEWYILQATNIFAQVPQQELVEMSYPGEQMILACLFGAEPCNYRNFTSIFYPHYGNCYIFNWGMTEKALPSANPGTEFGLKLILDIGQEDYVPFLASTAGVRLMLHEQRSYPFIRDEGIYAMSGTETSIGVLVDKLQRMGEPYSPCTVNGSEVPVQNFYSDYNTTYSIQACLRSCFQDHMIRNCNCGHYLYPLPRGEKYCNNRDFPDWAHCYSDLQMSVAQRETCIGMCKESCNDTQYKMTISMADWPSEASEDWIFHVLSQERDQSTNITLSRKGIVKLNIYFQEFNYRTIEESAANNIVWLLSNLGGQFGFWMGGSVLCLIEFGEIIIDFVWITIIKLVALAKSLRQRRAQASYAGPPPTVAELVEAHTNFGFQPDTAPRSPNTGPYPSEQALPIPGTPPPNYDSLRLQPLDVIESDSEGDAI", "T1 sequence (P51170 1-649)": "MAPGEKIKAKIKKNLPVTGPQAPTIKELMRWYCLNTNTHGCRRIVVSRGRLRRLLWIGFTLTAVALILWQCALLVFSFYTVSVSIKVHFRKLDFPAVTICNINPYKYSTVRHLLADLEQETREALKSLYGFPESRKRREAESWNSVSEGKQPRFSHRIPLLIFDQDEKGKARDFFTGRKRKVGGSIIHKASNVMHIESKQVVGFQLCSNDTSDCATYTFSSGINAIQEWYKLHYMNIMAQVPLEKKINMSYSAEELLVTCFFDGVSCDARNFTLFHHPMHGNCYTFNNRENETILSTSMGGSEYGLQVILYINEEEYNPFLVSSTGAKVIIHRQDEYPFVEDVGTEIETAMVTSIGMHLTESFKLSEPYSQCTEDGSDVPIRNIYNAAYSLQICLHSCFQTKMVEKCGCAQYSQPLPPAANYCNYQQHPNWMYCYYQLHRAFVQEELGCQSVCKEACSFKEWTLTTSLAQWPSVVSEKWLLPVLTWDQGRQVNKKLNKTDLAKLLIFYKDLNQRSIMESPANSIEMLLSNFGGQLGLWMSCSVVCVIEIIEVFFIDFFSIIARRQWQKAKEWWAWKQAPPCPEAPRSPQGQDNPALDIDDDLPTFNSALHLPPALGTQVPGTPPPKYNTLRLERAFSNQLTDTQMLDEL", "experiment": "Two-electrode voltage clamp of αβγ-ENaC expressed in Xenopus oocytes", "procedure": "Cloning, in vitro transcription, and heterologous expression of δ802 ENaC and two-electrode voltage clamping assay. δ802 and other ENaC subunits were generated in human ENaC cDNAs cloned into a pGEM HE vector [4], [76]. cRNAs of human α, β, and γ ENaC were prepared as described previously. The stoichiometry of native ENaC complexes is unclear to date. Based on the studies in the last decade, several models have been proposed for αβγ ENaC channels: 1α1β1γ, 2α1β1γ, 3α3β3γ. Based on the EM structure of human αβγ ENaC [35], the currently acceptable model of human αβγ ENaC complexes is heterotrimeric (1α1β1γ). Thus we microinjected δ802:β:γ in a 1:1:1 subunit ratio. Oocytes were surgically removed from appropriately anesthetized adult female Xenopus laevis (Xenopus Express). Briefly, the ovarian tissue was removed from the frog under anesthesia by tricaine-S (Western Chemicals) through a small incision in the lower abdomen. Ovarian lobes were removed and digested in OR-2 calcium-free medium (in mM: 82.5 NaCl, 2.5 KCl, 1.0 MgCl2, 1.0 Na2HPO4, and 10.0 HEPES, pH 7.5) with the addition of 2 mg/ml collagenase (Roche, Indianapolis). Defolliculated oocytes were injected with ENaC cRNAs into the cytosol (25 ng per oocyte in 50 nl of RNase-free water) and incubated in regular OR-2 medium at 18°C. The two-electrode voltage-clamp technique was used to record whole-cell currents 48 h post injection. Oocytes were impaled with two electrodes filled with 3M KCl, having resistance of 0.5 - 2 MΩ. A TEV-200A voltage-clamp amplifier (Dagan) was used to clamp oocytes with concomitant recording of currents. Two reference electrodes were connected to the bath. The continuously perfused bathing solution was ND-96 medium (in mM: 96.0 NaCl, 1.0 MgCl2, 1.8 CaCl2, 2.5 KCl, and 5.0 HEPES, pH 7.5). Whole-cell currents were recorded as previously reported. Experiments were controlled by pCLAMP 10.7 software (Molecular Devices), and currents at -40 mV, -100 mV, and +80 mV were continuously monitored with data recorded at intervals of 10 sec. Data were sampled at the rate of 200 Hz and filtered at 50 Hz."}, "[3]": {"conditions": "α-13 300 μM apical, MTE monolayers, n=6"}},
  "data": [
    {"molecule": "N=C(N)NC(=O)c1nc(Cl)c(N)nc1N", "note": "[amiloride]", "values": [
      {"measurement": "Ki", "setting": "[1]; Isc, Ussing chamber, amiloride 1 - 1,000 μM, n=5, read-out: ki value (logistic function), control MTE monolayers (converted)", "value": 680, "unit": "nM"},
      {"measurement": "Ki", "setting": "[2]; Isc, Ussing chamber, amiloride 1 - 1,000 μM, n=5, read-out: ki value (logistic function), δ-ENaC MTE monolayers (converted)", "value": "3040 ± 260", "unit": "nM"}
    ]},
    {"molecule": "Ac-LRGTLPHPLQRLR-NH2 [α-13 peptide]", "values": [
      {"measurement": "α-13 peptide-inhibitable fraction of Isc, control cells", "setting": "[1]; [3]", "value": 96, "unit": "%"},
      {"measurement": "α-13 inhibitable fraction of αβγ-ENaC channels after plasmin / aprotinin pre-treatment", "setting": "human αβγ-ENaC; n=8, Figure 3E", "value": "not significantly affected by fibrinolytic activity"},
      {"measurement": "IC50", "setting": "human αβγ-ENaC; oocytes, current at -100 mV, n=4, Chi^2 = 0.44, R^2 = 0.993, read-out: IC50 on αβγ-ENaC channels (Hill equation)", "value": "100 ± 10", "unit": "nM"},
      {"measurement": "inhibition of human αβγ-ENaC current", "setting": "human αβγ-ENaC; α-13 300 μM compared with amiloride 10 μM, -100 mV, subsequent amiloride did not reduce activity further", "value": "same efficacy as amiloride"},
      {"measurement": "α-13 peptide-inhibitable fraction of Isc, δ802-ENaC cells", "setting": "[2]; [3]", "value": 52, "unit": "%"}
    ]},
    {"molecule": "B1", "values": [
      {"measurement": "effect of pre-treatment on αβγ-ENaC activity", "setting": "human αβγ-ENaC; oocytes pre-treated, currents at -100 mV, n=5, Figure 3D", "value": "potentiated"}
    ]}
  ]
}
